According to US6355799B1, “Substituted benzene compounds, process for their preparation, and herbicidal and defoliant compositions containing them” (ISK Americas Incorporated, priority 1997, dated 2002):

Assays:
Format in all cases: in vivo
[1] = system: redroot pigweed (Amaranthus retroflexus, AMARE); experiment: Pre-emerge test, greenhouse herbicide activity screening
Method in brief: (§1)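 Plants grown in 10 cm pots of sandy loam mix received acetone-dissolved compounds through a moving flat-fan nozzle. Doses ranged from 15 to 1000 g ai/ha. Pre-emerge pots were seeded one day earlier, post-emerge pots 8–21 days earlier. Fourteen days on, each pot was graded 0–100 for damage.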

[2] = system: barnyardgrass (Echinochloa crus-galli, ECHCG); experiment: as above
Method in brief: as §1

[3] = system: green foxtail (Setaria viridis, SETVI); experiment: as above
Method in brief: as §1

[4] = system: ivyleaf morningglory (Ipomoea hederacea, IPOHE); experiment: as above
Method in brief: as §1

[5] = system: johnsongrass (Sorghum halepense, SORHA); experiment: as above
Method in brief: as §1

[6] = system: lambsquarters (Chenopodium album, CHEAL); experiment: as above
Method in brief: as §1

[7] = system: large crabgrass (Digitaria sanguinalis, DIGSA); experiment: as above
Method in brief: as §1

[8] = system: sicklepod (Cassia obtusifolia, CASOB); experiment: as above
Method in brief: as §1

[9] = system: velvetleaf (Abutilon theophrasti, ABUTH); experiment: as above
Method in brief: as §1

[10] = system: field corn (Zea mays L., var. Dekalb 535, CORN); experiment: Pre-emerge test, crop safety
Method in brief: (§2)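 Herbicidal damage is scored 0 (none) to 100 (complete plant death) two weeks after a simulated field spray. Rates span 15–1000 g ai/ha, delivered in acetone at 187 l/ha. For post-emergence treatments, plants have 2–3 leaves and the spray carries 0.25% v/v non-ionic surfactant.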

[11] = system: upland rice (Oryza sp., var. Tebonnet, RICE); experiment: Pre-emerge test, crop safety
Method in brief: as §2

[12] = system: barnyardgrass (Echinochloa crus-galli, ECHCG); experiment: Post-emerge test, greenhouse herbicide activity screening; settings: post-emerge, 14 days after application, rating scale 0-100
Method in brief: (§3)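 Rating: 0–100 visual injury, 14 DAA. Application: acetone, 187 l/ha, 15–1000 g ai/ha, flat-fan track sprayer with nozzle 40–45 cm above soil or canopy. Post-emerge runs used 0.25% v/v surfactant on 2–3 leaf plants.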

[13] = system: green foxtail (Setaria viridis, SETVI); experiment: as above; settings: post-emerge, 14 days after application, rating scale 0-100
Method in brief: as §3

[14] = system: ivyleaf morningglory (Ipomoea hederacea, IPOHE); experiment: as above; settings: post-emerge, 14 days after application, rating scale 0-100
Method in brief: as §3

[15] = system: johnsongrass (Sorghum halepense, SORHA); experiment: as above; settings: post-emerge, 14 days after application, rating scale 0-100
Method in brief: as §3

[16] = system: lambsquarters (Chenopodium album, CHEAL); experiment: as above; settings: post-emerge, 14 days after application, rating scale 0-100
Method in brief: as §3

[17] = system: large crabgrass (Digitaria sanguinalis, DIGSA); experiment: as above; settings: post-emerge, 14 days after application, rating scale 0-100
Method in brief: as §3

[18] = system: redroot pigweed (Amaranthus retroflexus, AMARE); experiment: as above; settings: post-emerge, 14 days after application
Method in brief: as §3

[19] = system: sicklepod (Cassia obtusifolia, CASOB); experiment: as above; settings: post-emerge, 14 days after application, rating scale 0-100
Method in brief: as §3

[20] = system: velvetleaf (Abutilon theophrasti, ABUTH); experiment: as above; settings: post-emerge, 14 days after application, rating scale 0-100
Method in brief: as §3

[21] = system: field corn (Zea mays L., var. Dekalb 535, CORN); experiment: Post-emerge test, crop safety; settings: post-emerge, 14 days after application, rating scale 0-100
Method in brief: (§4)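 Each test used a mechanized track sprayer delivering 187 l/ha of acetone solution at 15–1000 g ai/ha. Post-emerge foliage at 2–3 leaves was treated with added 0.25% v/v non-ionic surfactant and bottom-watered only. Injury was assessed on day 14, where 100 means total kill.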

[22] = system: upland rice (Oryza sp., var. Tebonnet, RICE); experiment: Post-emerge test, crop safety; settings: post-emerge, 14 days after application, rating scale 0-100
Method in brief: as §4

[23] = 63 g ai/ha, phytotoxicity rating 0-100, 14 days after application
[24] = 250 g ai/ha, phytotoxicity rating 0-100, 14 days after application
[25] = 63 g ai/ha, crop damage rating 0-100, 14 days after application
[26] = 250 g ai/ha, crop damage rating 0-100, 14 days after application
[27] = 63 g ai/ha, rating scale 0-100 (0 no damage, 100 complete death)
[28] = 250 g ai/ha, rating scale 0-100
[29] = pre-emerge, rate 63 g ai/ha, phytotoxicity rating 0-100 at 14 days after application
[30] = pre-emerge, rate 250 g ai/ha, phytotoxicity rating 0-100 at 14 days after application
[31] = crop damage, pre-emerge, rate 63 g ai/ha, phytotoxicity rating 0-100 at 14 days after application
[32] = crop damage, pre-emerge, rate 250 g ai/ha, phytotoxicity rating 0-100 at 14 days after application

Cc1c(Cl)cc(F)c(-n2c(=O)cc(C(F)(F)F)n(C)c2=O)c1NC(=O)OCc1ccccc1Cl [4-54]
Pre-emerge Herbicidal Activity AMARE [1, 23]: 100
Pre-emerge Herbicidal Activity AMARE [1, 24]: 100
Pre-emerge Herbicidal Activity ECHCG [2, 23]: 50
Pre-emerge Herbicidal Activity ECHCG [2, 24]: 85
Pre-emerge Herbicidal Activity SETVI [3, 23]: 90
Pre-emerge Herbicidal Activity SETVI [3, 24]: 100
Pre-emerge Herbicidal Activity IPOHE [4, 23]: 30
Pre-emerge Herbicidal Activity IPOHE [4, 24]: 70
Pre-emerge Herbicidal Activity SORHA [5, 23]: 30
Pre-emerge Herbicidal Activity SORHA [5, 24]: 80
Pre-emerge Herbicidal Activity CHEAL [6, 23]: 90
Pre-emerge Herbicidal Activity CHEAL [6, 24]: 100
Pre-emerge Herbicidal Activity DIGSA [7, 23]: 60
Pre-emerge Herbicidal Activity DIGSA [7, 24]: 100
Pre-emerge Herbicidal Activity CASOB [8, 23]: 30
Pre-emerge Herbicidal Activity CASOB [8, 24]: 80
Pre-emerge Herbicidal Activity ABUTH [9, 23]: 100
Pre-emerge Herbicidal Activity ABUTH [9, 24]: 90
Pre-emerge Herbicidal Activity CORN [10, 25]: 0
Pre-emerge Herbicidal Activity CORN [10, 26]: 5
Pre-emerge Herbicidal Activity RICE [11, 25]: 10
Pre-emerge Herbicidal Activity RICE [11, 26]: 60
phytotoxicity rating ECHCG ([12]; 63 g ai/ha): 70
phytotoxicity rating ECHCG ([12]; 250 g ai/ha): 80
phytotoxicity rating SETVI ([13]; 63 g ai/ha): 80
phytotoxicity rating SETVI ([13]; 250 g ai/ha): 90
phytotoxicity rating IPOHE ([14]; 63 g ai/ha): 100
phytotoxicity rating IPOHE ([14]; 250 g ai/ha): 100
phytotoxicity rating SORHA ([15]; 63 g ai/ha): 40
phytotoxicity rating SORHA ([15]; 250 g ai/ha): 70
phytotoxicity rating CHEAL ([16]; 63 g ai/ha): 100
phytotoxicity rating CHEAL ([16]; 250 g ai/ha): 100
phytotoxicity rating DIGSA ([17]; 63 g ai/ha): 30
phytotoxicity rating DIGSA ([17]; 250 g ai/ha): 60
phytotoxicity rating AMARE [18, 27]: 100
phytotoxicity rating AMARE [18, 28]: 100
phytotoxicity rating CASOB ([19]; 63 g ai/ha): 90
phytotoxicity rating CASOB ([19]; 250 g ai/ha): 100
phytotoxicity rating ABUTH ([20]; 63 g ai/ha): 100
phytotoxicity rating ABUTH ([20]; 250 g ai/ha): 100
phytotoxicity rating CORN (crop damage) ([21]; 63 g ai/ha): 40
phytotoxicity rating CORN (crop damage) ([21]; 250 g ai/ha): 75
phytotoxicity rating RICE (crop damage) ([22]; 63 g ai/ha): 90
phytotoxicity rating RICE (crop damage) ([22]; 250 g ai/ha): 100

Cc1cccc(C)c1OC(=O)Nc1c(C)c(Cl)cc(F)c1-n1c(=O)cc(C(F)(F)F)n(C)c1=O [4-55]
Pre-emerge Herbicidal Activity AMARE [1, 29]: 30
Pre-emerge Herbicidal Activity AMARE [1, 30]: 90
Pre-emerge Herbicidal Activity ECHCG [2, 29]: 0
Pre-emerge Herbicidal Activity ECHCG [2, 30]: 30
Pre-emerge Herbicidal Activity SETVI [3, 29]: 40
Pre-emerge Herbicidal Activity SETVI [3, 30]: 90
Pre-emerge Herbicidal Activity IPOHE [4, 29]: 20
Pre-emerge Herbicidal Activity IPOHE [4, 30]: 70
Pre-emerge Herbicidal Activity SORHA [5, 29]: 0
Pre-emerge Herbicidal Activity SORHA [5, 30]: 60
Pre-emerge Herbicidal Activity CHEAL [6, 29]: 90
Pre-emerge Herbicidal Activity CHEAL [6, 30]: 100
Pre-emerge Herbicidal Activity DIGSA [7, 29]: 0
Pre-emerge Herbicidal Activity DIGSA [7, 30]: 70
Pre-emerge Herbicidal Activity CASOB [8, 29]: 0
Pre-emerge Herbicidal Activity CASOB [8, 30]: 30
Pre-emerge Herbicidal Activity ABUTH [9, 29]: 80
Pre-emerge Herbicidal Activity ABUTH [9, 30]: 100
Pre-emerge Herbicidal Activity CORN [10, 31]: 0
Pre-emerge Herbicidal Activity CORN [10, 32]: 30
Pre-emerge Herbicidal Activity RICE [11, 31]: 0
Pre-emerge Herbicidal Activity RICE [11, 32]: 60
phytotoxicity rating ECHCG ([12]; 63 g ai/ha): 0
phytotoxicity rating ECHCG ([12]; 250 g ai/ha): 20
phytotoxicity rating SETVI ([13]; 63 g ai/ha): 10
phytotoxicity rating SETVI ([13]; 250 g ai/ha): 40
phytotoxicity rating IPOHE ([14]; 63 g ai/ha): 40
phytotoxicity rating IPOHE ([14]; 250 g ai/ha): 85
phytotoxicity rating SORHA ([15]; 63 g ai/ha): 0
phytotoxicity rating SORHA ([15]; 250 g ai/ha): 10
phytotoxicity rating CHEAL ([16]; 63 g ai/ha): 50
phytotoxicity rating CHEAL ([16]; 250 g ai/ha): 90
phytotoxicity rating DIGSA ([17]; 63 g ai/ha): 0
phytotoxicity rating DIGSA ([17]; 250 g ai/ha): 10
phytotoxicity rating AMARE [18, 27]: 50
phytotoxicity rating AMARE [18, 28]: 80
phytotoxicity rating CASOB ([19]; 63 g ai/ha): 20
phytotoxicity rating CASOB ([19]; 250 g ai/ha): 40
phytotoxicity rating ABUTH ([20]; 63 g ai/ha): 100
phytotoxicity rating ABUTH ([20]; 250 g ai/ha): 100
phytotoxicity rating CORN (crop damage) ([21]; 63 g ai/ha): 10
phytotoxicity rating CORN (crop damage) ([21]; 250 g ai/ha): 5
phytotoxicity rating RICE (crop damage) ([22]; 63 g ai/ha): 0
phytotoxicity rating RICE (crop damage) ([22]; 250 g ai/ha): 35
